Drawing on ChEMBL document CHEMBL5108067, “Discovery of Potent OTUB1/USP8 Dual Inhibitors Targeting Proteostasis in Non-Small-Cell Lung Cancer” (J Med Chem, 2022), this text covers residual activity for 32 compounds.

Test [1] deals with T1, Ubiquitin thioesterase OTUB1 (Homo sapiens, UniProt Q96FW1). The test can be described thus: Inhibition of N-terminal His-6 tagged OTUB1 (40 to 271 residues) (unknown origin) expressed in Escherichia coli BL21 (DE3) cells at 10 nM using Ub-Rho measured after 0.5 to 3 hrs by fluorescence based Plate reader method relative to control. The note with it: time 0.5-3 hrs, values are per cent of control.

Test [2] deals with T1, Ubiquitin thioesterase OTUB1. The test can be described thus: Inhibition of N-terminal His-6 tagged OTUB1 (40 to 271 residues) (unknown origin) expressed in Escherichia coli BL21 (DE3) cells at 100 nM using Ub-Rho measured after 0.5 to 3 hrs by fluorescence based Plate reader method relative to control. The following applies: time 0.5-3 hrs, values are per cent of control.

The target in test [3] is T2, Ubiquitin carboxyl-terminal hydrolase 8 (Homo sapiens) (UniProt P40818).
T2 sequence (whole entry): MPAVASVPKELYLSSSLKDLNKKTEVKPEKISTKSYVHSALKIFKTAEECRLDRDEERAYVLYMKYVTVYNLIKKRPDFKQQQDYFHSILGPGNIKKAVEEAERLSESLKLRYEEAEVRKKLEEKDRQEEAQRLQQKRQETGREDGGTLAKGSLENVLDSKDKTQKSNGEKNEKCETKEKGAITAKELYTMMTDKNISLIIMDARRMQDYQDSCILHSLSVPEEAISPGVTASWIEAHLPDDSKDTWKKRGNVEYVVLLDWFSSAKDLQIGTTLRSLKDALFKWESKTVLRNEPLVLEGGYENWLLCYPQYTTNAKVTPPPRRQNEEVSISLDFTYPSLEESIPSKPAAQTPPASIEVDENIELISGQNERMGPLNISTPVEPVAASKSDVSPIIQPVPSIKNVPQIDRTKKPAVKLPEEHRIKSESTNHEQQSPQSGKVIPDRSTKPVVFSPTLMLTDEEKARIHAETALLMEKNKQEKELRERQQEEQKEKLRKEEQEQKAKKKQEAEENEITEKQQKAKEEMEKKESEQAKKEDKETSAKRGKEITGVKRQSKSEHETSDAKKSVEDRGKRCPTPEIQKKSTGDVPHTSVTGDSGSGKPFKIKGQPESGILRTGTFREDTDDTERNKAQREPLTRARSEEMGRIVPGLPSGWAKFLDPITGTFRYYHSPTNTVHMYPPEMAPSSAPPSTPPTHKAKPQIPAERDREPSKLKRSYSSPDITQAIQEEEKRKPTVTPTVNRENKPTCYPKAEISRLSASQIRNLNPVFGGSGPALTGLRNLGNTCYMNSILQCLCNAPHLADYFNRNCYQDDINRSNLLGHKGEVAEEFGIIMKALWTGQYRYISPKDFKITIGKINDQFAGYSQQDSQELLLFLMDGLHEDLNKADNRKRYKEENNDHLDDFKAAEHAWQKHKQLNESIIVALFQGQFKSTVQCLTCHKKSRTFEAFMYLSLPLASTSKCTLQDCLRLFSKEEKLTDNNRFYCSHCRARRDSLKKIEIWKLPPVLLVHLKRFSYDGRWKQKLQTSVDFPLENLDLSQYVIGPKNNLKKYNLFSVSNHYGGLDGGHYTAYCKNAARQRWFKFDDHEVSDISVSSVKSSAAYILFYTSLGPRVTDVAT
The test can be described thus: Inhibition of N-terminal His-6 tagged USP8 (734 to 1110 residues) (unknown origin) expressed in Escherichia coli BL21 (DE3) cells at 10 nM measured after 3 hrs by fluorescence based Plate reader method relative to control. The note with it: values are per cent of control.

For test [4], the target named is T2, Ubiquitin carboxyl-terminal hydrolase 8 (Homo sapiens). The test can be described thus: Inhibition of N-terminal His-6 tagged USP8 (734 to 1110 residues) (unknown origin) expressed in Escherichia coli BL21 (DE3) cells at 100 nM measured after 3 hrs by fluorescence based Plate reader method relative to control. The following applies: values are per cent of control.

T1 sequence (Q96FW1 whole entry, the tested form may be a part): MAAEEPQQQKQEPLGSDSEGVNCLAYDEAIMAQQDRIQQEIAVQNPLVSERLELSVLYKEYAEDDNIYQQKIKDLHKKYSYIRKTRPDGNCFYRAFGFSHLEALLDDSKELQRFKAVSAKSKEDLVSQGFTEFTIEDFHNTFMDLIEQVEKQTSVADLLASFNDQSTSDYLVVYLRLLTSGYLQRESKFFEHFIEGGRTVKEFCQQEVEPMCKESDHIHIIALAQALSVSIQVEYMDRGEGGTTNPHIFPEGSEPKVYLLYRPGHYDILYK

As usually defined, the residual activity is the signal under treatment as a percentage of the control signal. A high value points to much activity left. As to `O=C1c2ccccc2C(=O)c2oc(-c3ccc([N+](=O)[O-])cc3)nc21`, the residual activity in test [1] was 36.1%; in test [2] it was 16.3%; in test [3] it was 20.2%; in test [4] it was 9.3%.
Regarding `O=C1c2ccccc2C(=O)c2oc(-c3ccc(Cl)cc3)nc21`, the residual activity in test [1] was 61.3%; in test [2] it was 34.2%; in test [3], 55.9%; in test [4], 22.5%.
The corresponding values for `COc1ccc(Cl)c(-c2nc3c(o2)C(=O)c2ccccc2C3=O)c1F` are 48.7%, 26.3%, 74.1% and 20.4%.
Take `CN1CC[C@H](Oc2cccc(-c3nc4c(o3)C(=O)c3ccccc3C4=O)c2)C1`: the residual activity in test [1] turned out to be 75.6%; in test [2], 38.7%; in test [3] it was 60.2%; in test [4] it was 29.8%.
As to `COc1cc(Cl)cc(-c2nc3c(o2)C(=O)c2ccccc2C3=O)c1`, the residual activity in test [1] amounted to 74.4%; in test [2], 40.7%; in test [3], 49%; in test [4], 24%.
The corresponding values for `COc1cccc(-c2nc3c(o2)C(=O)c2ccccc2C3=O)c1F` are 52.9%, 22.4%, 42.6% and 25.5%.
In the same order, the values of `COc1cc(F)cc(-c2nc3c([nH]2)C(=O)c2ccccc2C3=O)c1` are 84.8%, 77.9%, 91.4% and 85.2%.
On to `Cc1ccc(F)c(-c2nc3c(o2)C(=O)c2ccccc2C3=O)c1F`, for which the residual activity was found to be 53.7% in test [1], 22.7% in test [2], 62.1% in test [3] and 30.5% in test [4].
Regarding `O=C1c2ccccc2C(=O)c2[nH]c(-c3ccccc3)nc21`, the residual activity in test [1] is 84.3%; in test [2], 78.3%; in test [3], 92.5%; in test [4] it was 92.5%.
Take `Cc1ccc(-c2nc3c(o2)C(=O)c2ccccc2C3=O)cc1`: the residual activity in test [1] worked out at 66.9%; in test [2] it was 58.7%; in test [3] it was 58.6%; in test [4], 44.6%.
For the compound `O=C1c2ccccc2C(=O)c2oc(-c3c(F)ccc(F)c3F)nc21`, the residual activity in test [1] was determined as 40.7%; in test [2], 15.6%; in test [3], 36.6%; in test [4], 21.9%.
`COc1c(Cl)ccc(Cl)c1-c1nc2c(o1)C(=O)c1ccccc1C2=O`: the residual activity stood at 69.4% in test [1], 42.4% in test [2], 56.9% in test [3] and 35.6% in test [4].
Regarding `COc1ccc(F)c(-c2nc3c(o2)C(=O)c2ccccc2C3=O)c1`, the residual activity in test [1] was found to be 75%; in test [2] it was 31.2%; in test [3], 61.1%; in test [4] it was 33.1%.
With `CN1CC[C@@H](Oc2ccc(-c3nc4c(o3)C(=O)c3ccccc3C4=O)cc2Cl)C1`, the residual activity is 69.8% in test [1], 38.5% in test [2], 65.5% in test [3] and 31.2% in test [4].
For the compound `COc1ccc(-c2nc3c(o2)C(=O)c2ccccc2C3=O)c(C(F)(F)F)c1`, the residual activity in test [1] was 84.9%; in test [2], 41.7%; in test [3] it was 80.5%; in test [4], 18.6%.
The corresponding values for `CN1CC[C@@H](Oc2cc(Cl)cc(-c3nc4c(o3)C(=O)c3ccccc3C4=O)c2)C1` are 75%, 41.5%, 59.3% and 34.2%.
The corresponding values for `COc1ccc2c(c1)C(=O)c1nc(-c3cccc(OCCN(C)C)c3)[nH]c1C2=O` are 78.4%, 77.2%, 95.3% and 99.6%.
On to `O=C1c2ccccc2C(=O)c2oc(-c3cccc(OCCN4CCOCC4)c3)nc21`, for which the residual activity in test [1] came to 82.1%; in test [2], 47.2%; in test [3], 80%; in test [4], 44.3%.
For the compound `O=C1c2ccccc2C(=O)c2oc(-c3ccccc3F)nc21`, the residual activity in test [1] turned out to be 55.5%; in test [2], 27.3%; in test [3], 37.1%; in test [4], 19.2%.
The corresponding values for `CN(C)CCOc1cccc(-c2nc3c(o2)C(=O)c2ccccc2C3=O)c1` are 66.7%, 28.7%, 60.4% and 31.7%.
In the same order, the values of `O=C1c2ccccc2C(=O)c2oc(-c3ccccc3[N+](=O)[O-])nc21` are 47.2%, 19%, 51.1% and 21.6%.
Regarding `O=C1c2ccccc2C(=O)c2oc(-c3c(F)cccc3F)nc21`, the residual activity came out at 56.2% in test [1], 24% in test [2], 39.1% in test [3] and 37.4% in test [4].
With `CN1CC[C@@H](Oc2cccc(-c3nc4c(o3)C(=O)c3ccccc3C4=O)c2F)C1`, the residual activity in test [1] was 76.7%; in test [2], 41.3%; in test [3], 71.6%; in test [4], 38.6%.
Take `CN1CCN(CCOc2cc(Cl)cc(-c3nc4c(o3)C(=O)c3ccccc3C4=O)c2)CC1`: the residual activity amounted to 77.3% in test [1], 36.3% in test [2], 58.8% in test [3] and 27.9% in test [4].
`COc1ccccc1-c1nc2c(o1)C(=O)c1ccccc1C2=O`: the residual activity in test [1] turned out to be 59.2%; in test [2], 28.3%; in test [3] it was 43.9%; in test [4], 21.4%.
`COc1cc(-c2nc3c(o2)C(=O)c2ccccc2C3=O)ccc1C`: the residual activity amounted to 70.8% in test [1], 59.9% in test [2], 57.9% in test [3] and 56.7% in test [4].
With `O=C1c2ccccc2C(=O)c2oc(-c3ccc(C(F)(F)F)cc3)nc21`, the residual activity was 60.3% in test [1], 29% in test [2], 37.8% in test [3] and 18.2% in test [4].
The corresponding values for `CN1CC[C@@H](Oc2ccc(-c3nc4c(o3)C(=O)c3ccccc3C4=O)c(Cl)c2)C1` are 70.9%, 35.1%, 58.9% and 34.7%.
On to `O=C1c2ccccc2C(=O)c2oc(-c3ccc(F)cc3Cl)nc21`, for which the residual activity in test [1] was 47.6%; in test [2], 23.5%; in test [3], 28.5%; in test [4], 37.4%.
Consider `COc1cc(-c2nc3c(o2)C(=O)c2ccccc2C3=O)ccc1C(F)(F)F`, for which the residual activity in test [1] amounted to 71.4%; in test [2], 46.4%; in test [3] it was 58.5%; in test [4] it was 42.7%.
For `COc1cc(-c2nc3c(o2)C(=O)c2ccccc2C3=O)ccc1Cl`, the residual activity in test [1] was found to be 70.2%; in test [2], 40.4%; in test [3], 53.6%; in test [4], 30%.
In the same order, the values of `COc1ccc(Cl)c(-c2nc3c(o2)C(=O)c2ccccc2C3=O)c1` are 63.2%, 25.8%, 47.1% and 24%.
